Test [1] concerns the target T1, RGS7/Gβ5/R7BP complex (Homo sapiens, UniProt P49802).
T1 sequence (P49802 1-495): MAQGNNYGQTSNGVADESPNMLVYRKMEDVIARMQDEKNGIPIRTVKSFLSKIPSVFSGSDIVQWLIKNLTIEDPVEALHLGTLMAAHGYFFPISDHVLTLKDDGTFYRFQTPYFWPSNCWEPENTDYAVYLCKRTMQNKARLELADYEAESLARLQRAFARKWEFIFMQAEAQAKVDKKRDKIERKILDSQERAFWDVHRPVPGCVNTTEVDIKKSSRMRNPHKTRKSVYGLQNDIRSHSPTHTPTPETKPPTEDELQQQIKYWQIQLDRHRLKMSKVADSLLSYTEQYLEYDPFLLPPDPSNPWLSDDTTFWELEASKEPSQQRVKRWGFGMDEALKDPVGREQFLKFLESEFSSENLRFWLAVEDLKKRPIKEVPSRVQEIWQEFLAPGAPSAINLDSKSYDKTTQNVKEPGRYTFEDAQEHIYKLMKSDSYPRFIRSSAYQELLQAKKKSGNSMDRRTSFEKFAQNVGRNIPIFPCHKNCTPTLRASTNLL
T1 sequence (O14775 43-395 partner limits assumed): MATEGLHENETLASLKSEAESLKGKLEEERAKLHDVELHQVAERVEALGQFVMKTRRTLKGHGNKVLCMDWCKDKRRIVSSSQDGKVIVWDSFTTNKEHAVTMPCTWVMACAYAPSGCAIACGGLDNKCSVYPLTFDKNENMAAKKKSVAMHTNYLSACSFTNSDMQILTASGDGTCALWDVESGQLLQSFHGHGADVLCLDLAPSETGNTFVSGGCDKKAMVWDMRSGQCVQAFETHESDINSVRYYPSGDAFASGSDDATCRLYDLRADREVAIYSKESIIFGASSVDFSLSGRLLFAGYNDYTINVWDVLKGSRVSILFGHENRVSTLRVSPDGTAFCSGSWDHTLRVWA
The test can be described thus: TR-FRET assay of RGS7/Gβ5 interaction with R7BP, inhibitors mode. Type of test: binding. In general terms: Time-resolved FRET reads energy transfer from a long-lived donor to a nearby acceptor.

For test [2], the target named is T1, RGS7/Gβ5/R7BP complex. The test can be described thus: TR-FRET assay of RGS7/Gβ5 interaction with R7BP, activators mode. The test is classed as binding.

The structures appear in SMILES notation. Like-named read-outs stand apart in the source and are kept apart here.

Take `O=C1CCCN1C(=S)C(=S)N1CCCC1=O` [SR-01000319258–1, 1-[2-(2-oxopyrrolidin-1-yl)-2-sulfanylideneethanethioyl]pyrrolidin-2-one]: inhibition at RGS7/Gβ5/R7BP complex [1] was half-maximal at 173 nM (IC50). The same compound gave a maximum inhibition on RGS7/Gβ5/R7BP complex [1] (tertiary screening, first HTS campaign, concentration response curves) of 54.2 ± 0.84%. For `NCCc1cc(O)c(O)cc1O` [6-hydroxydopamine], the IC50 – broadly, the concentration that gives 50% inhibition – on RGS7/Gβ5/R7BP complex [1] (IC50, inhibition of complex formation, initial dose response studies) stood at 7650 ± 3740 nM.

On to `NC(=O)c1cc([N+](=O)[O-])cc([N+](=O)[O-])c1` [nitromide], for which, on RGS7/Gβ5/R7BP complex [2], a half-maximal response (EC50) required 760 ± 100 nM.

(Values after article PMC8552049 (SLAS discovery : advancing life sciences R & D, 2021).)
